Results: patent US4683198A, “Novel maltose dehydrogenase, process for its production, and analytical method using the same” (Toyo Jozo Kabushiki Kaisha, priority 1983, dated 1987)
Read-outs that look alike come from different tables or passages of the source.

What was measured:
[1] = test system: maltose dehydrogenase (acceptor); type: biochemical, Staphylococcus sp. B-0875
Description: (§1) The above reaction mixture (1.0 ml) in a small test tube is pre-incubated at 37° C. Enzyme solution (10 μl) is added thereto and incubated at 37° C. for 10 min. The reaction is stopped by adding 0.1N HCl (2.0 ml) and the optical density at 550 nm (As) is measured. Distilled water (10 μl) is added as a control and the amount measured at 550 nm (Ab).
Metallic ions, EDTA or KCN shown in Table 4 is added to the reaction mixture as in the assay method, and the effect thereof is measured. The results are shown in […]

serum amylase = assay: Serum amylase assay with different hydrogen acceptors (Example 12); type: biochemical; conditions: 0.002% hydrogen acceptor; human serum 20 μl; 37° C.; absorbancy at 550 nm
Description: 40 mM phosphate buffer pH 7.0
maltose dehydrogenase (acceptor) (16.7 U/ml)
Human serun (20 μl) was added to the reaction mixture hereinabove (the hydrogen acceptor is shown in Table 6), and the material was incubated at 37° C. for 5 mins. Reaction mixture II (0.4 ml) was added thereto and the material was incubated at 37° C. Changes in absorbancy at 550 nm were measured. The results are shown in Table 6, from which it will be seen that serum amylase can be measured whatever the hydrogen acceptor.

[2] = test system: maltose dehydrogenase (acceptor); assay: Hydrogen acceptor (coenzyme) of maltose dehydrogenase (acceptor) in oxidation of maltose; type: biochemical, Staphylococcus sp. B-0875; set-up: Relative Activity (%): concentration or dose not given beside the values; conditions: for Relative Activity (%): as hydrogen acceptor, Reaction pH 7.5, substrate maltose; for ability to act as hydrogen acceptor: oxidative reaction of maltose
Description: as §1
Hydrogen acceptor (coenzyme) of maltose dehydrogenase (acceptor) in the oxidative reaction (dehydrogenation) of maltose is measured according to the assay method. Maltose dehydrogenase (acceptor) of the present invention requires no NAD or NADP as a coenzyme. A decrease in soluble oxygen is observed at least whwn PMS, 1-methoxy-phenazine methosulfate (MPMS) or meldola blue is used as a hydrogen acceptor.

[3] = test system: maltose dehydrogenase (acceptor); assay: Substrate specificity of maltose dehydrogenase (acceptor), PMS/NTB assay at 550 nm; type: biochemical, Staphylococcus sp. B-0875; conditions: substrate each 0.1M, 0.1 ml, in place of maltose; 37° C., 10 min
Description: 20 mM phosphate buffer (pH 7.5)
0.1% bovine serum albumin
0.025% nitrotetrazolium blue (NTB)
0.001% phenazine methosulfate (PMS: hydrogen acceptor)
as §1
One unit is defined by the amount of enzyme which oxidizes (dehydrogenates)1 μmole of maltose in one minute and enzyme activity is calculated by the following equation: [formula]
Maltose in the above assay method is replaced by the substrates in Table 2 (each 0.1M, 0.1 ml) and assayed according to the above assay method.

[4] = test system: maltose dehydrogenase (acceptor); assay: Effect of surface-active agents on enzyme activity; type: biochemical, Staphylococcus sp. B-0875; conditions: Concentration 0.1%, in place of 0.2% Triton X-100; no addition = 100
Description: as §1
Surface active agents as in Table 5 are added one at a time to aliquots of the reaction mixture as in the assay method, in place of 0.2% Triton X-100, and the enzyme activity is measured.

[5] = test system: maltose dehydrogenase (acceptor); assay: Km value, substrate concentration-reaction rate relation; type: biochemical, Staphylococcus sp. B-0875; conditions: approximate, calculated according to FIG. 5; no linear Lineweaver-Burk plot
Source text: Under the experimental conditions, Vmax cannot be determined and no linear Lineweaver-Burk plot can be obtained.

[6] = 1.0 mM additive in reaction mixture, no addition = 100

With `[N-]=[N+]=[N-].[Na+]` [NaN3] the “Relative Activity (%)” value [1, 6] was 95%.

For `[Cl-].[Li+]` [LiCl], the “Relative Activity (%)” value [1, 6] was 95%.

For `C[N+](C)=c1ccc2nc3c(ccc4ccccc43)oc-2c1` [meldola blue, 9-dimethylaminobenzophenazoxonium chloride], the “Relative Amylase Activity” value (serum amylase) was 97.4% and the “Relative Activity (%)” value [2] was 20%.

For `OCC(O)CO` [glycerol], the “Relative Activity (%)” value [3] was 0%.

For `O=C(CO)[C@@H](O)[C@H](O)[C@H](O)CO` [fructose], the “Relative Activity (%)” value [3] was 31.4%.

For `OC[C@H]1O[C@@H](O[C@H]2[C@H](O)[C@@H](O)C(O)O[C@@H]2CO)[C@H](O)[C@@H](O)[C@H]1O` (stereo partly drawn) [lactose], the “Relative Activity (%)” value [3] was 58.2%.

`COc1cccc2c1nc1ccccc1[n+]2C` [MPMS, 1-methoxy-phenazine methosulfate] was tested, and the “Relative Amylase Activity” value (serum amylase) was 102% and the “Relative Activity (%)” value [2] was 30%.

In the case of `OC[C@@H](O)[C@@H](O)[C@H](O)[C@@H](O)CO` [sorbitol], the “Relative Activity (%)” value [3] is reported as 0%.

For `O=C[C@@H](O)[C@@H](O)[C@H](O)[C@H](O)CO` [mannose], the “Relative Activity (%)” value [3] was 52.4%.

With Triton X-100 the “Relative Activity (%)” value [4] was 115%.

In the case of `OC[C@H]1O[C@H](O[C@H]2[C@H](O)[C@@H](O)[C@@H](O[C@H]3[C@H](O)[C@@H](O)[C@@H](O[C@H]4[C@H](O)[C@@H](O)C(O)O[C@@H]4CO)O[C@@H]3CO)O[C@@H]2CO)[C@H](O)[C@@H](O)[C@@H]1O` (stereo partly drawn) [maltotetraose], the “Relative Activity (%)” value [3] is reported as 60.3%.

With `COc1cc(-c2ccc(-[n+]3nc(-c4ccccc4)nn3-c3ccc([N+](=O)[O-])cc3)c(OC)c2)ccc1-[n+]1nc(-c2ccccc2)nn1-c1ccc([N+](=O)[O-])cc1` [NTB, nitrotetrazolium blue] the “Relative Activity (%)” value [2] was 0%.

`O[C@H]1[C@H](O)[C@@H](O)[C@H](O)[C@@H](O)[C@H]1O` [inositol] was tested, and the “Relative Activity (%)” value [3] was 0%.

`O=C[C@H](O)[C@@H](O)[C@H](O)CO` [xylose] was tested, and the “Relative Activity (%)” value [3] was 53.7%.

With `NC(=O)c1ccc[n+]([C@@H]2O[C@H](COP(=O)([O-])OP(=O)(O)OC[C@H]3O[C@@H](n4cnc5c(N)ncnc54)[C@H](O)[C@@H]3O)[C@@H](O)[C@H]2O)c1` [NAD, nicotine adenine dinucleotide] the “Relative Activity (%)” value [2] was 0%.

With `OC[C@H]1O[C@H](O[C@H]2[C@H](O)[C@@H](O)[C@@H](O[C@H]3[C@H](O)[C@@H](O)[C@@H](O[C@H]4[C@H](O)[C@@H](O)[C@@H](O[C@H]5[C@H](O)[C@@H](O)[C@@H](O[C@H]6[C@H](O)[C@@H](O)C(O)O[C@@H]6CO)O[C@@H]5CO)O[C@@H]4CO)O[C@@H]3CO)O[C@@H]2CO)[C@H](O)[C@@H](O)[C@@H]1O` (stereo partly drawn) [maltohexaose] the “Relative Activity (%)” value [3] was 28.6%.

For `CCO` [ethanol], the “Relative Activity (%)” value [3] was 0%.

For `OC[C@H]1O[C@H](O[C@H]2[C@H](O)[C@@H](O)[C@H](O)O[C@@H]2CO)[C@H](O)[C@@H](O)[C@@H]1O` [maltose], the Km [5] was about 3800 µM and the “Relative Activity (%)” value [3] was 100%.

For `[Cl][Cu][Cl]` [CuCl2], the “Relative Activity (%)” value [1, 6] was 0%.

In the case of `[Cl-].[Cl-].[Mg+2]` [MgCl2], the “Relative Activity (%)” value [1, 6] is reported as 106%.

With `[Cl-].[Cl-].[Zn+2]` [ZnCl2] the “Relative Activity (%)” value [1, 6] was 4.5%.

With `OC[C@H]1O[C@H](O[C@H]2[C@H](O)[C@@H](O)[C@H](O)O[C@@H]2CO)[C@H](O)[C@@H](O)[C@@H]1O` [β-maltose] the Km [5] was 1360 µM.

For `[Ba+2].[Cl-].[Cl-]` [BaCl2], the “Relative Activity (%)” value [1, 6] was 61.2%.

In the case of Sodium laurylbenzene sulfate, the “Relative Activity (%)” value [4] is reported as 0.2%.

For `O=C[C@H](O)[C@@H](O)[C@H](O)[C@H](O)CO` [glucose], the “Relative Activity (%)” value [3] was 80.0%.

In the case of `[Cl][Mn][Cl]` [MnCl2], the “Relative Activity (%)” value [1, 6] is reported as 13.4%.

With Tween-80 the “Relative Activity (%)” value [4] was 104%.

With `NC(=O)c1ccc[n+]([C@@H]2O[C@H](COP(=O)([O-])OP(=O)(O)OC[C@H]3O[C@@H](n4cnc5c(N)ncnc54)[C@H](OP(=O)(O)O)[C@@H]3O)[C@@H](O)[C@H]2O)c1` [NADP, nicotine adenine dinucleotide phosphate] the “Relative Activity (%)” value [2] was 0%.

With `C[n+]1c2ccccc2nc2ccccc21` [PMS, phenazine methosulfate] the “Relative Amylase Activity” value (serum amylase) was 100% and the “Relative Activity (%)” value [2] was 100%.

With `CC(=O)Nc1cccc2c1nc1ccccc1[n+]2C` [1-acetamide-phenazine methosulfate] the “Relative Amylase Activity” value (serum amylase) was 103% and the “ability to act as hydrogen acceptor” value [2] was “can also be a hydrogen acceptor”.

For `O=C[C@H](O)[C@@H](O)[C@@H](O)[C@H](O)CO` [galactose], the “Relative Activity (%)” value [3] was 56.1%.

`CCCCCCCCCCCCCCCC[N+](C)(C)C.[Cl-]` [Cetyl trimethylammonium chloride] was tested, and the “Relative Activity (%)” value [4] was 94%.

In the case of `OC[C@H]1O[C@H](O[C@H]2[C@H](O)[C@@H](O)[C@@H](O[C@H]3[C@H](O)[C@@H](O)[C@@H](O[C@H]4[C@H](O)[C@@H](O)[C@@H](O[C@H]5[C@H](O)[C@@H](O)C(O)O[C@@H]5CO)O[C@@H]4CO)O[C@@H]3CO)O[C@@H]2CO)[C@H](O)[C@@H](O)[C@@H]1O` (stereo partly drawn) [maltopentaose], the “Relative Activity (%)” value [3] is reported as 36.4%.

With `OC[C@H]1O[C@H](OC[C@H]2O[C@H](O[C@]3(CO)O[C@H](CO)[C@@H](O)[C@@H]3O)[C@H](O)[C@@H](O)[C@@H]2O)[C@H](O)[C@@H](O)[C@H]1O` [raffinose] the “Relative Activity (%)” value [3] was 0%.

`O=C(O)CN(CCN(CC(=O)O)CC(=O)O)CC(=O)O` [EDTA] was tested, and the “Relative Activity (%)” value [1] was 73%.

For `O=C1C(Cl)=CC(=Nc2ccc(O)cc2)C=C1Cl` [2,6-dichlorophenolindophenol], the “ability to act as hydrogen acceptor” value [2] was “can also be a hydrogen acceptor”.

Span-85 was tested, and the “Relative Activity (%)” value [4] was 103%.

With `CCCCCCCCCCCCCCCC(=O)N(C)CC(=O)[O-].[Na+]` [Sarcosinate PN] the “Relative Activity (%)” value [4] was 114%.

With `C[C@H](CCC(=O)O)[C@H]1CC[C@H]2[C@@H]3[C@H](O)C[C@@H]4C[C@H](O)CC[C@]4(C)[C@H]3C[C@H](O)[C@]12C` [Sodium cholate] the “Relative Activity (%)” value [4] was 86%.

In the case of `[Cl-].[Cl-].[Co+2]` [CoCl2], the “Relative Activity (%)” value [1, 6] is reported as 17.9%.

`[Ca+2].[Cl-].[Cl-]` [CaCl2] was tested, and the “Relative Activity (%)” value [1, 6] was 101%.

`OC[C@H]1O[C@@](CO)(O[C@H]2O[C@H](CO)[C@@H](O)[C@H](O)[C@H]2O)[C@@H](O)[C@@H]1O` [sucrose] was tested, and the “Relative Activity (%)” value [3] was 0%.

With `OC[C@H]1O[C@H](O[C@H]2[C@H](O)[C@@H](O)[C@@H](O[C@H]3[C@H](O)[C@@H](O)[C@@H](O[C@H]4[C@H](O)[C@@H](O)[C@@H](O[C@H]5[C@H](O)[C@@H](O)[C@@H](O[C@H]6[C@H](O)[C@@H](O)[C@@H](O[C@H]7[C@H](O)[C@@H](O)C(O)O[C@@H]7CO)O[C@@H]6CO)O[C@@H]5CO)O[C@@H]4CO)O[C@@H]3CO)O[C@@H]2CO)[C@H](O)[C@@H](O)[C@@H]1O` (stereo partly drawn) [maltoheptaose] the “Relative Activity (%)” value [3] was 22.4%.

For `OC[C@H]1O[C@H](O[C@H]2[C@H](O)[C@@H](O)[C@@H](O[C@H]3[C@H](O)[C@@H](O)C(O)O[C@@H]3CO)O[C@@H]2CO)[C@H](O)[C@@H](O)[C@@H]1O` (stereo partly drawn) [maltotriose], the “Relative Activity (%)” value [3] was 77.4%.

With `CN(C)c1ccc2nc3ccc(=[N+](C)C)cc-3sc2c1` [methylene blue] the “Relative Activity (%)” value [2] was 0%.

For `CCCCCCCCCCCCOS(=O)(=O)O` [SDS], the “Relative Activity (%)” value [4] was 3.8%.
